According to patent publication US9919002B2, “Methods and constructs for compound delivery” (North Carolina State University, priority 2013, dated 2018):

Key:
MDA-MB-231 cells = assay: Cell apoptosis assay (Annexin V-FITC, TUNEL), Example 2; assay type: cell-based, human; conditions: 12 h
Method: Apoptosis of MDA-MB-231 cells was detected using the Annexin V-FITC Apoptosis Detection Kit (BD Biosciences) and APO-BrdU TUNEL Assay Kit (Life Technologies), respectively. The cells (1×10^5 cells/well) were seeded in 6-well plates and cultured for 48 h. For Annexin V-FITC assay, the cells were incubated with different formulations for 12 h, including free TRAIL (2 or 20 ng/mL), TRAIL-Gelipo (20 ng/mL) with or without HAase-treatment, Dox-R8H3-L (100 ng/mL), TRAIL/Dox-Gelipo (2 ng/mL TRAIL, 100 ng/mL Dox) with HAase-treatment. For TUNEL assay, the cells were incubated with free TRAIL (2 ng/mL), Dox-R8H3-L (100 ng/mL) and TRAIL/Dox-Gelipo (2 ng/mL TRAIL, 100 ng/mL Dox) with HAase-treatment for 20 h, respectively. The following procedures were performed in accordance with the manufacturers' protocols. Finally, for Annexin V-FITC assay, the cells were analyzed by flow cytometry (BD FACSCalibur), while for TUNEL assay, the cells were observed by fluorescence microscope (IX71, Olympus).

HAase = assay: In vitro HAase-mediated TRAIL release and CD spectra; assay type: physicochemical; conditions: TRAIL released from Gelipo versus native TRAIL
Method: 500 μL of rhodamine-labeled TRAIL-loaded Gelipo (r-TRAIL-Gelipo) was incubated with 500 μL of HAase (1 mg/mL) at pH 6.5 in a 37° C. water bath. At prearranged time intervals, free r-TRAIL in the filtrate was harvested using centrifugal filters (30K MWCO) (Millipore). The fluorescence intensity of r-TRAIL was determined at 585 nm with an excitation wavelength of 552 nm by a microplate reader (Infinite M200 PRO, Tecan). Additionally, the far-UV CD spectra of the native TRAIL and the released TRAIL from TRAIL Gelipo were obtained using a Circular Dichroism Spectrometer (Aviv).

[1] = tested on: MDA-MB-231 tumor xenograft; assay: In vivo antitumor efficacy of Gelipo formulations; conditions: i.v. 2 mg/kg Dox every other day for 12 days
Method: All animals were treated in accordance with the Guide for Care and Use of Laboratory Animals, approved by local committee. The female nude mice were subcutaneously inoculated in the back with MDA-MB-231 cells (1×10^7 cells/mouse) for the construction of the tumor xenograft model. The tumor size was monitored by a fine caliper and the tumor volume (V) was calculated as V=L×W^2/2, where L and W were the length and width of the tumor, respectively.
When the tumor volume reached to 50 mm^3, the mice were weighed, randomly divided into 4 groups, and intravenously administrated with the Dox solution (2 mg/kg), Dox-Gelipo (2 mg/kg), Dox/TRAIL-Gelipo (2 mg/kg Dox, 0.04 mg/kg TRAIL) and saline every other day for 12 days. The tumor size and body weight of the mice were measured at the meantime. At Day 14, the tumor were harvested from the mice after euthanasia, washed by saline thrice and then fixed in 10% neutral buffered formalin (NBF). For HE staining, formalin-fixed tumors were embedded in paraffin blocks and visualized by optical microscope (DM5500B, Leica). For TUNEL apoptosis staining, the fixed tumor sections were stained by the In Situ Cell Death Detection Kit (Roche Applied Science) according to the manufacturer's protocol. Hoechst 33342 was used for nuclear nuclear counterstaining. The stained tumor slides were observed by fluorescence microscope (IX71, Olympus).

[2] = 20 ng/mL TRAIL, Annexin V-FITC/PI

Compound | Apoptosis ratio (MDA-MB-231 cells; 2 ng/mL TRAIL) [%] | Apoptosis ratio (MDA-MB-231 cells; [2]) [%] | Viability (MDA-MB-231 cells; [2]) [%] | Secondary structure of released TRAIL (CD spectrum) (HAase) | Tumor growth compared with saline [1]
free TRAIL: His-ILZ-TRAIL (residues 114-281) produced in E. coli; TNF-related apoptosis-inducing ligand | 36.48 | 51.71 | 32.30 | no noticeable conformational changes in the secondary structure | 
COc1cccc2c1C(=O)c1c(O)c3c(c(O)c1C2=O)C[C@@](O)(C(=O)CO)C[C@@H]3O[C@H]1C[C@H](N)[C@H](O)[C@H](C)O1 [Dox solution, doxorubicin] |  |  |  |  | remarkably suppressed
